Data taken from patent US10077264B2, “Derivatives and methods of treating hepatitis B infections” (Novira Therapeutics, Inc., priority 2014, dated 2018).
Like-named read-outs stand apart in the source and are kept apart here.

Tested on: HBV replication in HepG2.2.15 cells
Experiment: HBV replication inhibition assay (BDNA assay)
Assay type: cell-based
Details: for EC50: read-out: Activity in BDNA-assay (EC50); for inhibition at 10 µM: read-out: Activity in BDNA-assay (activity at 10 μM)
Text: HBV replication inhibition by the compounds of this invention could be determined in cells infected or transfected with HBV, or cells with stably integrated HBV, such as HepG2.2.15 cells (Sells et al. 1987). In this example, HepG2.2.15 cells were maintained in cell culture medium containing 10% fetal bovine serum (FBS), Geneticin, L-glutamine, penicillin and streptomycin. HepG2.2.15 cells could be seeded in 96-well plates at a density of 40,000 cells/well and be treated with serially diluted compounds at a final DMSO concentration of 0.5% either alone or in combination by adding drugs in a checker box format. Cells were incubated with compounds for three days, after which medium was removed and fresh medium containing compounds was added to cells and incubated for another three days. At day 6, supernatant was removed and treated with DNase at 37° C. for 60 minutes, followed by enzyme inactivation at 75° C. for 15 minutes. Encapsidated HBV DNA was released from the virions and covalently linked HBV polymerase by incubating in lysis buffer (Affymetrix QS0010) containing […] proteinase K at 50° C. for 40 minutes. HBV DNA was denatured by addition of 0.2 M NaOH and detected using a branched DNA (BDNA) QuantiGene assay kit according to manufacturer recommendation (Affymetrix). HBV DNA levels could also be quantified using qPCR, based on amplification of encapsidated HBV DNA extraction with QuickExtraction Solution (Epicentre Biotechnologies) and amplification of HBV DNA using HBV specific PCR probes that can hybridize to HBV DNA and a fluorescently labeled probe for quantitation. In addition, cell viability of HepG2.2.15 cells incubated with test compounds alone or in combination was determined by using CellTitre-Glo reagent according to the manufacturer protocol (Promega). The mean background signal from wells containing only culture medium was subtracted from all other samples, and percent inhibition at each compound concentration was calculated by normalizing to signals from HepG2.2.15 cells treated with 0.5% DMSO using equation E1. % inhibition=(DMSOave−Xi)/DMSOave×100% E1: • where DMSOave is the mean signal calculated from the wells that were treated with DMSO control (0% inhibition control) and Xi is the signal measured from the individual wells. EC50 values, effective concentrations that achieved 50% inhibitory effect, were determined by non-linear fitting using Graphpad Prism software (San Diego, Calif.) and equation E2 Y=Ymin+(Ymax−Ymin)/(1+10(Log EC50−X)×HillSlope) E2: • where Y represents percent inhibition values and X represents the logarithm of compound concentrations.
Selected compounds of the invention were assayed in the HBV replication assay (BDNA assay), as described above and a representative group of these active compounds is shown in Table 3.

[1] = HepG2.2.15 cells, 6 days, encapsidated HBV DNA in supernatant
[2] = Hepatitis B virus, HepG2.2.15, 144 h, HepG2.2.15 cells, 6 days, encapsidated HBV DNA in supernatant
[3] = Hepatitis B virus, 144 h, HepG2.2.15 cells, 10 μM, 6 days, encapsidated HBV DNA in supernatant

SMILES | EC50 [1] [nM] | EC50 [2] [nM] | also measured
CC1Cc2[nH]nc(-c3ccccc3)c2CN1C(=O)Nc1cccc(Cl)c1 (single isomer, unassigned) [317 (E1), N-(3-chlorophenyl)-6-methyl-3-phenyl-1,4,6,7-tetrahydropyrazolo[4,3-c]pyridine-5-carboxamide] | 10 to 100 |  | 
CC1Cc2[nH]nc(-c3ccccc3)c2CN1C(=O)Nc1cccc(Cl)c1 (single isomer, unassigned) [317 (E2), N-(3-chlorophenyl)-6-methyl-3-phenyl-1,4,6,7-tetrahydropyrazolo[4,3-c]pyridine-5-carboxamide] | 100 to 500 |  | 
CC1c2c(-c3ccccc3)n[nH]c2CCN1C(=O)Nc1cccc(Cl)c1 (single isomer, unassigned) [318 (E1), N-(3-chlorophenyl)-4-methyl-3-phenyl-1,4,6,7-tetrahydropyrazolo[4,3-c]pyridine-5-carboxamide] |  | 100 to 500 | 
CC1c2c(-c3ccccc3)n[nH]c2CCN1C(=O)Nc1cccc(Cl)c1 (single isomer, unassigned) [318 (E2), N-(3-chlorophenyl)-4-methyl-3-phenyl-1,4,6,7-tetrahydropyrazolo[4,3-c]pyridine-5-carboxamide] | 100 to 500 |  | 
O=C(C1C[C@H]1c1ccccc1)N1CCc2[nH]nc(-c3ccccc3)c2C1 (stereo in doubt) [Compound 030, (2-phenylcyclopropyl)-(3-phenyl-2,4,6,7-tetrahydropyrazolo[4,3-c]pyridin-5-yl)methanone] |  |  | inhibition at 10 µM [3]: > 50%
CC1Cc2[nH]nc(-c3cscn3)c2CN1C(=O)Nc1ccc(F)c(Cl)c1 (centres unmarked) [917 E1, N-(3-chloro-4-fluoro-phenyl)-6-methyl-3-thiazol-4-yl-1,4,6,7-tetrahydropyrazolo[4,3-c]pyridine-5-carboxamide] |  | 10 to 100 | 
CC1Cc2[nH]nc(-c3cscn3)c2CN1C(=O)Nc1ccc(F)c(Cl)c1 (centres unmarked) [917 E2] | 10 to 100 |  | 
CC1Cc2[nH]nc(-c3cscn3)c2CN1C(=O)Nc1cccc(Br)c1 (centres unmarked) [918 E1] |  | 10 to 100 | 
CC1Cc2[nH]nc(-c3cscn3)c2CN1C(=O)Nc1cccc(Br)c1 (centres unmarked) [918 E2] | 10 to 100 |  | 
CC1Cc2[nH]nc(-c3cscn3)c2CN1C(=O)Nc1ccc(F)c(Br)c1 (centres unmarked) [919 E1] |  | 10 to 100 | 
CC1Cc2[nH]nc(-c3cscn3)c2CN1C(=O)Nc1ccc(F)c(Br)c1 (centres unmarked) [919 E2] | 10 to 100 |  | 
CC1Cc2[nH]nc(-c3cscn3)c2CN1C(=O)Nc1cccc(Br)c1F (centres unmarked) [920 E1] |  | 10 to 100 | 
CC1Cc2[nH]nc(-c3cscn3)c2CN1C(=O)Nc1cccc(Br)c1F (centres unmarked) [920 E2] | 10 to 100 |  | 
CC1Cc2[nH]nc(-c3cscn3)c2CN1C(=O)Nc1ccnc(Br)c1F (centres unmarked) [921 E1] |  | 10 to 100 | 
CC1Cc2[nH]nc(-c3cscn3)c2CN1C(=O)Nc1ccnc(Br)c1F (centres unmarked) [921 E2] | 10 to 100 |  | 
CC1Cc2[nH]nc(-c3cscn3)c2CN1C(=O)Nc1ccc(F)c(C#N)c1 (centres unmarked) [922 E1] |  | 10 to 100 | 
CC1Cc2[nH]nc(-c3cscn3)c2CN1C(=O)Nc1ccc(F)c(C#N)c1 (centres unmarked) [922 E2] | 10 to 100 |  | 
Cc1cccc(NC(=O)N2Cc3c(-c4cscn4)n[nH]c3CC2C)c1 (centres unmarked) [923 E1] |  | 10 to 100 | 
Cc1cccc(NC(=O)N2Cc3c(-c4cscn4)n[nH]c3CC2C)c1 (centres unmarked) [923 E2] | 10 to 100 |  | 
Cc1cc(NC(=O)N2Cc3c(-c4cscn4)n[nH]c3CC2C)ccc1F (centres unmarked) [924 E1] |  | 10 to 100 | 
Cc1cc(NC(=O)N2Cc3c(-c4cscn4)n[nH]c3CC2C)ccc1F (centres unmarked) [924 E2] | 10 to 100 |  | 
O=C(COc1cncnc1)N1CCc2[nH]nc(-c3ccccc3)c2C1 [Compound 001] |  |  | inhibition at 10 µM [3]: > 50%
CC(Oc1ccccc1)C(=O)N1CCc2[nH]nc(-c3ccccc3)c2C1 (centres unmarked) [Compound 014, 2-phenoxy-1-(3-phenyl-1,4,6,7-tetrahydropyrazolo[4,3-c]pyridin-5-yl)propan-1-one] |  | 1000 to 1500 | 
CC(OC(=O)N1CCc2[nH]nc(-c3ccccc3)c2C1)c1ccccc1 (centres unmarked) [Compound 016, 1-phenylethyl 3-phenyl-1,4,6,7-tetrahydropyrazolo[4,3-c]pyridine-5-carboxylate] |  |  | inhibition at 10 µM [3]: > 50%
O=C(NCc1ccccc1)N1CCc2[nH]nc(-c3ccccc3)c2C1 [Compound 017, N-benzyl-3-phenyl-1,4,6,7-tetrahydropyrazolo[4,3-c]pyridine-5-carboxamide] |  |  | inhibition at 10 µM [3]: > 50%
O=C(Oc1ccccc1)N1CCc2[nH]nc(-c3ccccc3)c2C1 [Compound 021, phenyl3-phenyl-1,4,6,7-tetrahydropyrazolo[4,3-c]pyridine-5-carboxylate] |  |  | inhibition at 10 µM (Hepatitis B virus, HepG2.2.15, 144 h): > 50%
